Patent US20160102316A1, “STRESS TOLERANT PLANTS” (CONSEJO SUPERIOR DE INVESTIGACIONES CIENTIFICAS(CSIC), priority 2013, published 2016)
“Also recorded” adds a separate entry of the source. Peptide text beside a SMILES is read from it. * marks the point of attachment. Cbz = O=C(OCc1ccccc1)*

How the values were obtained:
[1] = system: 3HA-PYL8; test: MG132 treatment of oe3HA-PYL8 seedlings, anti-HA immunoblot; type: in vivo, Arabidopsis; settings: 9-d-old oe3HA-PYL8 seedlings, 50 μM MG132, 2 h, vs mock
Description: To determine whether PYL8 is a substrate of the UPS, we treated Arabidopsis seedlings expressing a 3×HA-tagged PYL8 fusion (oe3HA-PYL8) with proteasome inhibitor MG132. […] Moreover, upon proteasome inhibition several bands of high MW were detected, likely corresponding to ubiquitinated 3HA-PYL8 forms.
(§1) For protein extraction from seedlings, proteins were extracted in buffer containing 50 mM Tris-HCl pH 7.4, 150 mM NaCl, 10mM MgCl2, 1 mM PMSF, 0.1%NP-40 and 1× complete protease inhibitor (Roche). After centrifugation at 16,000 g at 4° C., the supernatants were collected. This step was repeated twice. For protein extraction from seeds, seeds were frozen in liquid N2 and then homogenized in buffer containing 7 M urea, 2 M thiourea, 4% 3-[(3-cholamidopropyl)dimethylammonio]-1-propanesulfonate (CHAPS; w/v), 18 mM Tris-HCl pH 7.5, 0,2% Triton X100, 1× complete protease inhibitor (Roche). After 10 min incubation at 4° C. with rotation. DTT was added to protein extracts (14 mM final concentration), prior to 20 min incubation at 4° C. Extracts were clarified by centrifugation as afore-mentioned. Protein concentration in final supernatants was determined using a Bio-Rad Protein Assay kit. […]

[2] = target: T1, 3HA-PYL8 (Arabidopsis thaliana, UniProt Q9FGM1); test: In vivo protein degradation assay (cycloheximide time course, immunoblot); settings: 8-d-old seedlings treated with cycloheximide
T1 construct: expressed in transfected cells; host or cells: stably transformed Arabidopsis thaliana (Col-0) plants, line oe3HA-PYL8: seedlings or imbibed seeds; seed lines in pyl8-1 background, some crossed with oeDDA1-GFP
T1 sequence (Q9FGM1 1-188): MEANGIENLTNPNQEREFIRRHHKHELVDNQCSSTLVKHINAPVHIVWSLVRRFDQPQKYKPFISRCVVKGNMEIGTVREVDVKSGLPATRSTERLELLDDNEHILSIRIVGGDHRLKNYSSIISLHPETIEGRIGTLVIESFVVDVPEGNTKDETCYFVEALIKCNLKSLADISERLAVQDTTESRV
Description: as §1, with “kit. For in vivo co-immunoprecipitation assays, normalized seedling protein extracts were incubated with 5 μl anti-GFP antibody (Living colors Full length A.V. Polyclonal Antibody, Clontech) for 1 h at 4° C. with rotation. 10 μl of protein A-coupled beads (prewashed twice with 0.1 M Glycine pH 2.7) were added to the samples and incubated for an additional hour at 4° C. with rotation.” for “kit.”

[3] = target: T1, 3HA-PYL8; test: Immunoblot of 3HA-PYL8 levels in imbibed seeds; type: in vivo; settings: 24 h in MS media with 3 μM ABA
Description: (G) Immunoblot analysis of 3HA-PYL8 levels in seeds corresponding to oe3HA-PYL8/oeDDA1-GFP and control (oe3HA-PYL8) plants. Both lines were in the pyl8-1 background. Prior to protein extraction, imbibed seeds were maintained for 24 h in MS media with or without 3 μM ABA. Anti-HA and anti-RPT5 antibodies were used to detect 3HA-PYL8 and for loading control purposes, respectively.
as §1

[4] = system: HA-PYL8 transcript; test: HA-PYL8 transcript levels in ABA-treated seeds (semiquantitative RT-PCR); type: in vivo, Arabidopsis; settings: oeHA-PYL8 seeds, ABA treatment for 24 h
Description: Semiquantitative PCR experiments from seedlings were performed using RNA prepared as afore-mentioned. RNA extraction from seeds was carried out as previously described (Onate-Sanchez and Vicente-Carbajosa, 2008). cDNA from all tissues was synthetized as described above. […] of one-fifth diluted cDNA was used to amplify DDA1-GFP, 3HA-PYL8 and the housekeeping gene ACTIN8 using the following primer:
The PCR conditions were as follows: 1 min at 94° C., 35 cycles of 15 s at 94° C., 1 min at 58-62° C., and 1 min 30 s at 72° C., and finally, 5 min at 72° C. 25

[5] = target: T2, PP2C-ABA-PYL8 ternary complexes (Arabidopsis thaliana, UniProt Q9FGM1); settings: ternary complex of PYL8 with ABA and clade A PP2C; cited from earlier work
T2 sequence (Q9FGM1 1-188): T1 sequence (Q9FGM1 1-188)

[6] = system: PYL8 gene expression; settings: after 3 h of ABA treatment; cited from earlier work

CC(C)C[C@@H](C=O)NC(=O)[C@H](CC(C)C)NC(=O)[C@H](CC(C)C)NC(=O)OCc1ccccc1 [MG132] (Cbz-Leu-Leu-Leu-aldehyde)
3HA-PYL8 protein accumulation [1]: increased 3HA-PYL8 protein accumulation; also recorded: stabilizes 3HA-PYL8 | 3HA-PYL8 destabilization/accumulation ([2]; 50 μM MG132, oe3HA-PYL8 and oe3HA-PYL8/oeDDA1-GFP): attenuated 3HA-PYL8 destabilization; also recorded: increased accumulation of 3HA-PYL8

CC1=CC(=O)CC(C)(C)[C@@]1(O)/C=C/C(C)=C\C(=O)O [ABA, abscisic acid]
3HA-PYL8 degradation ([2]; 50 μM ABA): blocked 3HA-PYL8 degradation | 3HA-PYL8 accumulation in seeds [3]: increased accumulation of 3HA-PYL8 | HA-PYL8 transcript levels [4]: reduced HA-PYL8 transcript levels | Kd [5]: 20 to 40 nM | PYL8 gene expression [6]: reduces PYL8 gene expression
